From BigSolDB 2.1

COc1cc([N+](=O)[O-])ccc1N
solubility (mole fraction)
Conditions | 278.15 K | 283.15 K | 288.15 K | 293.15 K | 298.15 K | 303.15 K | 308.15 K | 313.15 K | 318.15 K | 323.15 K
in isopropanol | 0.00186 | 0.00221 | 0.00265 | 0.00322 | 0.00396 | 0.00492 | 0.00595 | 0.00719 | 0.00855 | 0.0101
in water | 4.03e-06 | 5.68e-06 | 7.36e-06 | 9.49e-06 | 1.27e-05 | 1.74e-05 | 2.36e-05 | 3.15e-05 | 4.23e-05 | 5.49e-05
